# From PubChem BioAssay AID2060487 (Molecular Pharmacology Branch, DTP, NCI, 2025)
# Tested on: 997537-175-T-J1-PDC complex spheroid viability
# Assay: Anticancer human tumor 997537-175-T-J1-PDC patient-derived colon adenocarcinoma cell line growth inhibition [GQUAD]
# Settings: for IC50: curve of first compound; for viability, T/C: stronger effect = lower value
# Procedure, shortened: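 Tumor cells were grown as complex spheroids with HUVEC endothelial cells and mesenchymal stem cells as stroma. G-quadruplex stabilizers were combined with targeted agents over half-log dilutions from near the clinical Cmax, or from 10 microM.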
# [1] = second compound 0.0316 µM, first compound 0.0316 µM
# [2] = second compound 0.0316 µM, first compound 0.1 µM
# [3] = second compound 0.0316 µM, first compound 0.316 µM
# [4] = second compound 0.0316 µM, first compound 1 µM
# [5] = second compound 0.0316 µM, first compound 3.16 µM
# [6] = second compound 0.0316 µM, first compound 10 µM
# [7] = second compound 0.1 µM, first compound 0.0316 µM
# [8] = second compound 0.1 µM, first compound 0.1 µM
# [9] = second compound 0.1 µM, first compound 0.316 µM
# [10] = second compound 0.1 µM, first compound 1 µM
# [11] = second compound 0.1 µM, first compound 3.16 µM
# [12] = second compound 0.1 µM, first compound 10 µM
# [13] = second compound 0.316 µM, first compound 0.0316 µM
# [14] = second compound 0.316 µM, first compound 0.1 µM
# [15] = second compound 0.316 µM, first compound 0.316 µM
# [16] = second compound 0.316 µM, first compound 1 µM
# [17] = second compound 0.316 µM, first compound 3.16 µM
# [18] = second compound 0.316 µM, first compound 10 µM
# [19] = second compound 1 µM, first compound 0.0316 µM
# [20] = second compound 1 µM, first compound 0.1 µM
# [21] = second compound 1 µM, first compound 0.316 µM
# [22] = second compound 1 µM, first compound 1 µM
# [23] = second compound 1 µM, first compound 3.16 µM
# [24] = second compound 1 µM, first compound 10 µM
# [25] = second compound 3.16 µM, first compound 0.0316 µM
# [26] = second compound 3.16 µM, first compound 0.1 µM
# [27] = second compound 3.16 µM, first compound 0.316 µM
# [28] = second compound 3.16 µM, first compound 1 µM
# [29] = second compound 3.16 µM, first compound 3.16 µM
# [30] = second compound 3.16 µM, first compound 10 µM
# [31] = second compound 10 µM, first compound 0.0316 µM
# [32] = second compound 10 µM, first compound 0.1 µM
# [33] = second compound 10 µM, first compound 0.316 µM
# [34] = second compound 10 µM, first compound 1 µM
# [35] = second compound 10 µM, first compound 3.16 µM
# [36] = second compound 10 µM, first compound 10 µM
# 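Note: spheroids exposed to the agents for 7 days.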
# 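Throughout, for viability, T/C: 100% = DMSO vehicle control viability.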
smiles,measurement,setting,value
O=C(NO)c1cnc(N2CCN(S(=O)(=O)c3ccc4ccccc4c3)CC2)nc1 + CN(C)c1ccc(Nc2c3ccc(NC(=O)CCN4CCCC4)cc3nc3cc(NC(=O)CCN4CCCC4)ccc23)cc1,IC50,second compound 0.0316 µM,2410 nM
same,IC50,second compound 0.1 µM,1440 nM
same,IC50,second compound 0.316 µM,2040 nM
same,IC50,second compound 1 µM,1530 nM
same,IC50,second compound 3.16 µM,1610 nM
same,IC50,second compound 10 µM,2120 nM
same,"viability, T/C",[1],96%
same,"viability, T/C",[2],88.2%
same,"viability, T/C",[3],105%
same,"viability, T/C",[4],76.5%
same,"viability, T/C",[5],41.6%
same,"viability, T/C",[6],0.32%
same,"viability, T/C",[7],112%
same,"viability, T/C",[8],90.9%
same,"viability, T/C",[9],91%
same,"viability, T/C",[10],66.8%
same,"viability, T/C",[11],18%
same,"viability, T/C",[12],0.22%
same,"viability, T/C",[13],94.3%
same,"viability, T/C",[14],97.8%
same,"viability, T/C",[15],82.1%
same,"viability, T/C",[16],82.4%
same,"viability, T/C",[17],30.8%
same,"viability, T/C",[18],0.23%
same,"viability, T/C",[19],69.8%
same,"viability, T/C",[20],86.4%
same,"viability, T/C",[21],98.9%
same,"viability, T/C",[22],77.8%
same,"viability, T/C",[23],3.02%
same,"viability, T/C",[24],0.59%
same,"viability, T/C",[25],63.6%
same,"viability, T/C",[26],105%
same,"viability, T/C",[27],105%
same,"viability, T/C",[28],84.1%
same,"viability, T/C",[29],1.75%
same,"viability, T/C",[30],0.47%
same,"viability, T/C",[31],83.4%
same,"viability, T/C",[32],90%
same,"viability, T/C",[33],95.6%
same,"viability, T/C",[34],79%
same,"viability, T/C",[35],34.1%
same,"viability, T/C",[36],0.44%
CC1COCCN1c1cc(-c2ccnn2C)c2ccnc(-c3ccn[nH]3)c2n1 (stereo not drawn) + Cc1[nH]c2ccc(F)cc2c1-c1nc2c3cccnc3c3ncccc3c2[nH]1,IC50,second compound 0.0316 µM,209 nM
same,IC50,second compound 0.1 µM,287 nM
same,IC50,second compound 0.316 µM,288 nM
same,IC50,second compound 1 µM,376 nM
same,IC50,second compound 3.16 µM,179 nM
same,IC50,second compound 10 µM,113 nM
same,"viability, T/C",[1],82.8%
same,"viability, T/C",[2],66.7%
same,"viability, T/C",[3],36.5%
same,"viability, T/C",[4],28.3%
same,"viability, T/C",[5],35%
same,"viability, T/C",[6],62.5%
same,"viability, T/C",[7],86.1%
same,"viability, T/C",[8],64.5%
same,"viability, T/C",[9],57.3%
same,"viability, T/C",[10],24.7%
same,"viability, T/C",[11],37.3%
same,"viability, T/C",[12],46.5%
same,"viability, T/C",[13],76.7%
same,"viability, T/C",[14],58.5%
same,"viability, T/C",[15],57.4%
same,"viability, T/C",[16],32.5%
same,"viability, T/C",[17],36.4%
same,"viability, T/C",[18],46.4%
same,"viability, T/C",[19],60.4%
same,"viability, T/C",[20],56.1%
same,"viability, T/C",[21],51.6%
same,"viability, T/C",[22],21.6%
same,"viability, T/C",[23],42.6%
same,"viability, T/C",[24],57.9%
same,"viability, T/C",[25],54.8%
same,"viability, T/C",[26],70.2%
same,"viability, T/C",[27],29.2%
same,"viability, T/C",[28],40.8%
same,"viability, T/C",[29],33.8%
same,"viability, T/C",[30],47%
same,"viability, T/C",[31],65.8%
same,"viability, T/C",[32],55.3%
same,"viability, T/C",[33],36.4%
same,"viability, T/C",[34],42.5%
same,"viability, T/C",[35],52.3%
same,"viability, T/C",[36],47.9%
CC1COCCN1c1cc(C2(S(C)(=N)=O)CC2)nc(-c2ccnc3[nH]ccc23)n1 (stereo not drawn) + Cc1[nH]c2ccc(F)cc2c1-c1nc2c3cccnc3c3ncccc3c2[nH]1,IC50,second compound 0.0316 µM,9530 nM
same,IC50,second compound 0.1 µM,6250 nM
same,IC50,second compound 0.316 µM,> 10000 nM
same,IC50,second compound 1 µM,> 10000 nM
same,IC50,second compound 3.16 µM,6510 nM
same,IC50,second compound 10 µM,> 10000 nM
same,"viability, T/C",[1],96.7%
same,"viability, T/C",[2],83.8%
same,"viability, T/C",[3],76.3%
same,"viability, T/C",[4],71.9%
same,"viability, T/C",[5],62.9%
same,"viability, T/C",[6],47.5%
same,"viability, T/C",[7],95.8%
same,"viability, T/C",[8],86.2%
same,"viability, T/C",[9],82.4%
same,"viability, T/C",[10],77.6%
same,"viability, T/C",[11],70.3%
same,"viability, T/C",[12],37.4%
same,"viability, T/C",[13],107%
same,"viability, T/C",[14],73.8%
same,"viability, T/C",[15],69.7%
same,"viability, T/C",[16],70%
same,"viability, T/C",[17],62.3%
same,"viability, T/C",[18],49.3%
same,"viability, T/C",[19],80.3%
same,"viability, T/C",[20],46.2%
same,"viability, T/C",[21],76.8%
same,"viability, T/C",[22],94%
same,"viability, T/C",[23],72.5%
same,"viability, T/C",[24],60.6%
same,"viability, T/C",[25],59.7%
same,"viability, T/C",[26],79.8%
same,"viability, T/C",[27],66.1%
same,"viability, T/C",[28],55.8%
same,"viability, T/C",[29],71%
same,"viability, T/C",[30],40.4%
same,"viability, T/C",[31],63.7%
same,"viability, T/C",[32],76.2%
same,"viability, T/C",[33],72.2%
same,"viability, T/C",[34],71.2%
same,"viability, T/C",[35],64.5%
same,"viability, T/C",[36],74.8%
COc1ccc([C@@H](O)c2cc(-c3ncnc4cc(N5CCOCC5)ccc34)c(F)cc2Cl)nn1 + Cc1[nH]c2ccc(F)cc2c1-c1nc2c3cccnc3c3ncccc3c2[nH]1,IC50,second compound 0.0316 µM,> 10000 nM
same,IC50,second compound 0.1 µM,> 10000 nM
same,IC50,second compound 0.316 µM,> 10000 nM
same,IC50,second compound 1 µM,7630 nM
same,IC50,second compound 3.16 µM,> 10000 nM
same,IC50,second compound 10 µM,8490 nM
same,"viability, T/C",[1],90%
same,"viability, T/C",[2],98.5%
same,"viability, T/C",[3],93.9%
same,"viability, T/C",[4],80.4%
same,"viability, T/C",[5],80.5%
same,"viability, T/C",[6],60%
same,"viability, T/C",[7],110%
same,"viability, T/C",[8],86.2%
same,"viability, T/C",[9],92.3%
same,"viability, T/C",[10],60.7%
same,"viability, T/C",[11],106%
same,"viability, T/C",[12],48.8%
same,"viability, T/C",[13],86.8%
same,"viability, T/C",[14],98.9%
same,"viability, T/C",[15],100%
same,"viability, T/C",[16],81%
same,"viability, T/C",[17],98.9%
same,"viability, T/C",[18],67.8%
same,"viability, T/C",[19],74.3%
same,"viability, T/C",[20],81.4%
same,"viability, T/C",[21],95.4%
same,"viability, T/C",[22],72%
same,"viability, T/C",[23],86.6%
same,"viability, T/C",[24],40.1%
same,"viability, T/C",[25],72.4%
same,"viability, T/C",[26],71.9%
same,"viability, T/C",[27],51.2%
same,"viability, T/C",[28],92.2%
same,"viability, T/C",[29],95.9%
same,"viability, T/C",[30],54.7%
same,"viability, T/C",[31],66%
same,"viability, T/C",[32],88.5%
same,"viability, T/C",[33],73.1%
same,"viability, T/C",[34],73.1%
same,"viability, T/C",[35],80.4%
same,"viability, T/C",[36],45.7%
